Patent US20240207216A1, “COMPOSITIONS AND METHOD FOR TREATING GUT PERMEABILITY CAUSED BY HYDROGEN SULFIDE PRODUCING BACTERIA” (UNM RAINFOREST INNOVATIONS, priority 2022, published 2024)

Assays:
Format in all cases: cell-based, murine
p-Akt/Akt = experiment: DSV-induced Akt phosphorylation, Western blot in RAW cells; details: 1 h before DSV 4 h, DSV alone 4.88±1.31
Protocol: (§1) RAW 264.7 murine macrophage-like cells were grown in DMEM+10% FBS without any use of antibiotics or antimycotics. Cells were grown at 37° C. in a humidified incubator with 5% CO2. Prior to the day of infection, 8×10^5 cells were plated in a six-well plate and infected with DSV at multiplicity of infection 20 (MOI 20) for various times. For drug treatments, cells were incubated with LY294002 at 10 μM or 50 μM for one hour followed by DSV infection for 30 minutes or four hours. For TL2-C29 treatment, cells were incubated with the inhibitor at 200 μM for three hours followed by infection with DSV for four hours.
(§2) Cells were lysed in Lysis buffer containing protease and phosphatase inhibitors (Thermo Fisher Scientific, Inc., Waltham, MA) for 20 minutes at 4° C. Lysates were centrifuged at 12,000 rpm for five mins at 4° C. and supernatants were collected. Protein concentration in the supernatants was determined with Bradford reagent (Bio-Rad Laboratories, Inc., Hercules, CA). 50 μg of protein samples were run on SDS-PAGE (4-20% tris-glycine) and transferred to nitrocellulose membranes. Membranes were blocked in 5% milk in PBS-T (0.1% Tween 20) for 30 minutes followed by overnight incubation in primary antibodies in cold room. All antibodies except iNOS were purchased from Cell Signaling Technology (Danvers, MA): Actin (4970), p-AktS473(4060), p-Akt T308(13038), Akt (9272), p-P70S6K (9205), P70S6K (2708, TNF-α (19948). iNOS antibody was purchased from Abcam (Cambridge United Kingdom). Antibodies were diluted as recommended by the manufacturer. The following day, blots were washed with PBS-T and incubated with secondary antibodies (Cell Signaling Technology, Danvers, MA) at room temperature for one hour (dilution of 1:2000) and developed using enhanced chemiluminescence HRP signal (Thermo Fisher Scientific, Inc., Waltham, MA).
(§3) All graphs were generated using PRISM 9.4.1 GraphPad Software Inc., San Diego, CA). Data is plotted as Mean±SEM relative to control. Each experiment was conducted at least three independent times. […]

p-p70S6K = experiment: DSV-induced p-P70S6K, Western blot in RAW cells; details: 1 h before DSV 4 h, DSV alone 1.96±0.20
Protocol: as §1
(§4) Cells were lysed in Lysis buffer containing protease and phosphatase inhibitors (Thermo Fisher Scientific, Inc., Waltham, MA) for 20 minutes at 4° C. Lysates were centrifuged at 12,000 rpm for five mins at 4° C. and supernatants were collected. Protein concentration in the supernatants was determined with Bradford reagent (Bio-Rad Laboratories, Inc., Hercules, CA). 50 μg of protein samples were run on SDS-PAGE (4-20% tris-glycine) and transferred to nitrocellulose membranes. Membranes were blocked in 5% milk in PBS-T (0.1% Tween 20) for 30 minutes followed by overnight incubation in primary antibodies in cold room. […]

TNF-α = experiment: DSV-induced cellular TNF-α expression, Western blot in RAW cells; details: 1 h before DSV 4 h, DSV alone 37.01±4.28
Protocol: as §1, §2, §3

secreted TNF-α = experiment: DSV-induced secreted TNF-α, Western blot of RAW cell culture supernatant; details: 1 h before DSV 4 h, DSV alone 18.73±6.21
Protocol: FIG. 12. LY294002 inhibits DSV-induced activation of PI3K/Akt/TNF pathway. (A) RAW cells were treated with LY at either 10 μM or 50 μM for one hour before infection with DSV for four hours. Cells were lysed and protein lysate was prepared. Fifty μg of protein lysate was separated on SDS-PAGE and analyzed for p-Akt, Akt, TNF, iNOS, p-p70S6K, and total p70S6K by Western blotting. Actin was used as a loading control. (B) Quantification of p-Akt-Akt Western blot. (C) Quantification of p-P70/P70 Western blot. (D) Quantification of TNF-α/actin Western blot. (E) Post-infection, RAW cell culture supernatant was collected and proteins were precipitated using ethanol precipitation. Proteins were resuspended in PBS and 50 μg of proteins were loaded on SDS-PAGE and secreted TNF-α was detected using TNF-α antibody. Actin was used as a loading control.
as §1, §4

iNOS = experiment: DSV-induced iNOS expression, Western blot in RAW cells; details: 1 h before DSV 4 h, DSV alone 23.54±5.39
Protocol: as §1, §2, §3

p-p65 NF-κB = experiment: DSV-induced phospho-p65 NF-κB, Western blot in RAW cells; details: 50 μM pre-treatment, DSV 30 minutes; DSV alone 3.54±0.59
Protocol: FIG. 13. LY294002 inhibits DSV-induced activation of PI3K/Akt/TNF pathway. (A) Quantification of secreted TNF-α. (B) Cells were treated with LY at either 10 μM or 50 μM for one hour before infection with DSV for four hours. Protein lysate was analyzed for iNOS expression. (C) Cells were pretreated with or without LY 50 μM followed by infection with DSV for 30 minutes and protein samples were analyzed for p-p65 NF-κB and total NF-κB. (D) Blots were quantified by analyzing the ratio of p-NF-κB/NF-κB. Values were normalized and compared to control. Data represents Mean±SEM from at least three independent experiments. Values were normalized to control. One-way ANOVA was used to determine the statistical significance. Values were compared to DSV, with a post-hoc Dunnett's test. *p<0.05, **p<0.01, ***p<0.001.
RAW 264.7 murine macrophage-like cells were grown in DMEM+10% FBS without any use of antibiotics or antimycotics. Cells were grown at 37° C. in a humidified incubator with 5% CO2. […]
Cells were lysed in Lysis buffer containing protease and phosphatase inhibitors (Thermo Fisher Scientific, Inc., Waltham, MA) for 20 minutes at 4° C. […] Protein concentration in the supernatants was determined with Bradford reagent (Bio-Rad Laboratories, Inc., Hercules, CA). […]

Structure (SMILES): O=c1cc(N2CCOCC2)oc2c(-c3ccccc3)cccc12 [LY294002]
- p-Akt/Akt, normalized to control (p-Akt/Akt; 10 μM): 0.52±0.11
- p-Akt/Akt, normalized to control (p-Akt/Akt; 50 μM): 0.40±0.09
- p-P70/P70, normalized to control (p-p70S6K; 10 μM): 0.081±0.026
- p-P70/P70, normalized to control (p-p70S6K; 50 μM): 0.088±0.029
- cellular TNF-α/actin, normalized to control (TNF-α; 10 μM): 13.42±2.13
- cellular TNF-α/actin, normalized to control (TNF-α; 50 μM): 6.044±2.139
- secreted TNF-α, normalized to control (secreted TNF-α; 10 μM): 1.45±0.24
- secreted TNF-α, normalized to control (secreted TNF-α; 50 μM): 1.34±0.57
- iNOS expression, normalized to control (iNOS; 10 μM): 5.45±0.17
- iNOS expression, normalized to control (iNOS; 50 μM): 2.28±0.58
- p-NF-κB/NF-κB (p-p65), normalized to control (p-p65 NF-κB): 1.91±0.54
